Data: patent US20100137449A1, “SUBSTITUTED 1,3-CYCLOPENTADIONE MULTI-TARGET PROTEIN KINASE MODULATORS OF CANCER, ANGIOGENESIS AND THE INFLAMMATORY PATHWAYS ASSOCIATED THEREWITH” (METAPROTEOMICS, LLC, priority 2007, published 2010)

What was measured:
Test in all cases: KinaseProfiler Assay
SIK(h) = SIK(h) (Homo sapiens, UniProt P57059)
TrkA(h) = TrkA(h) (Homo sapiens, UniProt P04629)
DAPK2(h) = DAPK2(h) (Homo sapiens, UniProt Q9UIK4)
MuSK(h) = target: T1, MuSK(h) (Homo sapiens, UniProt O15146)
T1 sequence (O15146 24-869): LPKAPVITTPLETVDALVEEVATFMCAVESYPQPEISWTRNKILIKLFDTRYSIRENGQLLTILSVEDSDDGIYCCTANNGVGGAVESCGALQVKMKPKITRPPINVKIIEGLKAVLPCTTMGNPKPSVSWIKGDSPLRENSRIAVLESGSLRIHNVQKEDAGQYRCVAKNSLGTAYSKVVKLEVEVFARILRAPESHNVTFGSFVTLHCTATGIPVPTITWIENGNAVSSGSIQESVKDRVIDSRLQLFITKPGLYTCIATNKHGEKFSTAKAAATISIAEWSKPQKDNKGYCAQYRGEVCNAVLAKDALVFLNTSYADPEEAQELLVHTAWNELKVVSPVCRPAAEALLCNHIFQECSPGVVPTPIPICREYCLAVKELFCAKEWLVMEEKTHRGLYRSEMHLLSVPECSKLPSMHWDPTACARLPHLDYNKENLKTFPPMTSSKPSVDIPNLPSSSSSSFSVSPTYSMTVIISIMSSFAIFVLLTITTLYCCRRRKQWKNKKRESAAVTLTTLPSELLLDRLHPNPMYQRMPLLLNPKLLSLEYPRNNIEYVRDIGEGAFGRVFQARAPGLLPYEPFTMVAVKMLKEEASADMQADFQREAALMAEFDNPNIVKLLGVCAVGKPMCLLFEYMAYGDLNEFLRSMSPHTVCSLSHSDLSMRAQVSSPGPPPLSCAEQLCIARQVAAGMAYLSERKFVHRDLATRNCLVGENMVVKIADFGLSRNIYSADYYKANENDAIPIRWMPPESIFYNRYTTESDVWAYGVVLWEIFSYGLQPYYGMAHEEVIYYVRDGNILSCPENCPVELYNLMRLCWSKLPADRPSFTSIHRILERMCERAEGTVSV

Fms(h) = Fms(h) (Homo sapiens, UniProt P07333)
TBK1(h) = target: T2, TBK1(h) (Homo sapiens, UniProt Q9UHD2)
T2 sequence (Q9UHD2 1-729): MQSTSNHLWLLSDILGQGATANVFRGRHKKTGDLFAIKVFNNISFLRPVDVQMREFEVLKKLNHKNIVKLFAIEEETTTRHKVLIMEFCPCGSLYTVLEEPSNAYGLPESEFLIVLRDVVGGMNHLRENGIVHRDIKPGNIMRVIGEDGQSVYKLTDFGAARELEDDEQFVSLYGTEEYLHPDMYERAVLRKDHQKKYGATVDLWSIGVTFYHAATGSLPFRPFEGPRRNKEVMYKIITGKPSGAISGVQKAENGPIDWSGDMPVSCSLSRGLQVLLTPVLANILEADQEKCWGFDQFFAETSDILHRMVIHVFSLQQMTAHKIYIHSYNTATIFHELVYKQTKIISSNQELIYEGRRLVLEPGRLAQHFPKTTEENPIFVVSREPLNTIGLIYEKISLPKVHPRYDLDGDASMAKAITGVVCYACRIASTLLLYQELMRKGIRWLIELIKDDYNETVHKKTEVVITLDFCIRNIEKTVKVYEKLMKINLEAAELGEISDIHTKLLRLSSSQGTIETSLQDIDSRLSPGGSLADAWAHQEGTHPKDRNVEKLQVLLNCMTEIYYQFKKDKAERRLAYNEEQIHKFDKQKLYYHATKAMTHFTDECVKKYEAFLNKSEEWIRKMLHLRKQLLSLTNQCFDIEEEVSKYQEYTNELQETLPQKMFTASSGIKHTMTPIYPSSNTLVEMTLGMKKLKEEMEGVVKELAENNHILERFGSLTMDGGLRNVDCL

Rsk2(h) = Rsk2(h) (Homo sapiens, UniProt P51812)
SGK2(h) = target: T3, SGK2(h) (Homo sapiens, UniProt Q9HBY8)
T3 sequence (Q9HBY8 1-367): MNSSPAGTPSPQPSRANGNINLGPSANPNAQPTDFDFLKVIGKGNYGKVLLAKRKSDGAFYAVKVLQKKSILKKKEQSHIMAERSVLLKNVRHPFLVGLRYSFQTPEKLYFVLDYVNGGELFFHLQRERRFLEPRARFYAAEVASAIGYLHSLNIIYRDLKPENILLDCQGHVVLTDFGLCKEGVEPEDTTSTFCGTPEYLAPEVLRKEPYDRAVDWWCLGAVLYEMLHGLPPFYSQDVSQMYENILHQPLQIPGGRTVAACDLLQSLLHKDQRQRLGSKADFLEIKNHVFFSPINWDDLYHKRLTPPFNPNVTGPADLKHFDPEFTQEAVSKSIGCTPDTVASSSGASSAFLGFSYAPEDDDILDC

Sequence of Rsk2(h) (P51812 whole entry): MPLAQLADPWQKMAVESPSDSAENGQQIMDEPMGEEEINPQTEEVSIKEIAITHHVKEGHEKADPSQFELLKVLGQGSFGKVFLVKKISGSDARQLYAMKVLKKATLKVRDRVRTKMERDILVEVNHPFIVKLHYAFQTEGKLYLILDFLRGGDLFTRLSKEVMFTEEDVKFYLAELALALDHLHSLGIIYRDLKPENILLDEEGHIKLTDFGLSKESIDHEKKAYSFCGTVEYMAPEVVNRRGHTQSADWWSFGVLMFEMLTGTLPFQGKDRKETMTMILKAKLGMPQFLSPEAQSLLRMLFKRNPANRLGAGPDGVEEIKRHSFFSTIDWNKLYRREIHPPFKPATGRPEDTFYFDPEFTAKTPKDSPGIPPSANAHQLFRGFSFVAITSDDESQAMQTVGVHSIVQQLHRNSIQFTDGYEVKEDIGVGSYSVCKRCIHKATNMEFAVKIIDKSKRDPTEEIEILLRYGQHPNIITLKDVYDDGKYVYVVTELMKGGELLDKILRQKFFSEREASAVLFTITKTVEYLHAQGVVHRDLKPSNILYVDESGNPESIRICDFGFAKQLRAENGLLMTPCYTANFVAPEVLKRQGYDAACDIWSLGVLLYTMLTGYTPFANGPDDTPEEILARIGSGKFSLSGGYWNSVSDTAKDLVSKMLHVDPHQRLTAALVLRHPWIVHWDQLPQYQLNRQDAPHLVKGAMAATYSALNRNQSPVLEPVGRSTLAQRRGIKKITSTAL
Sequence of SIK(h) (P57059 whole entry): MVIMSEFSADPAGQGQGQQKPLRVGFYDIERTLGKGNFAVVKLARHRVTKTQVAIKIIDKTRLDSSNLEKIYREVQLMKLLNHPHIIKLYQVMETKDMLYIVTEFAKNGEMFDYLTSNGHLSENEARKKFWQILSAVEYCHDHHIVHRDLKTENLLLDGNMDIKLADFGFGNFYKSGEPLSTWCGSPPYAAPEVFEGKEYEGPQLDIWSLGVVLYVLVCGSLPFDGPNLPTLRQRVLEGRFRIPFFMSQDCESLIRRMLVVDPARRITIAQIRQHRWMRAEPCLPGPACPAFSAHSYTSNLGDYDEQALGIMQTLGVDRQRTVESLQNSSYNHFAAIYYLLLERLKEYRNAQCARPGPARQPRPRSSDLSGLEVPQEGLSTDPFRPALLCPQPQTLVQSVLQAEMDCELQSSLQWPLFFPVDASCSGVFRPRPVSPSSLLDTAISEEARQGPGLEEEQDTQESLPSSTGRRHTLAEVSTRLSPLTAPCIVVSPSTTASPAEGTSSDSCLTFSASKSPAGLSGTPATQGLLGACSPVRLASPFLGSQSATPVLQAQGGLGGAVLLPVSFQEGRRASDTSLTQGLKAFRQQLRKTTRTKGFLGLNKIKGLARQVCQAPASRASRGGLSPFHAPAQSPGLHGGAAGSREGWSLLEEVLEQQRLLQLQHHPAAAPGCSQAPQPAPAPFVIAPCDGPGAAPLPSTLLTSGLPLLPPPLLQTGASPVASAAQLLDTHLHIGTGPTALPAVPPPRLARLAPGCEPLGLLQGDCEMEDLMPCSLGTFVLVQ
Sequence of TrkA(h) (P04629 33-796): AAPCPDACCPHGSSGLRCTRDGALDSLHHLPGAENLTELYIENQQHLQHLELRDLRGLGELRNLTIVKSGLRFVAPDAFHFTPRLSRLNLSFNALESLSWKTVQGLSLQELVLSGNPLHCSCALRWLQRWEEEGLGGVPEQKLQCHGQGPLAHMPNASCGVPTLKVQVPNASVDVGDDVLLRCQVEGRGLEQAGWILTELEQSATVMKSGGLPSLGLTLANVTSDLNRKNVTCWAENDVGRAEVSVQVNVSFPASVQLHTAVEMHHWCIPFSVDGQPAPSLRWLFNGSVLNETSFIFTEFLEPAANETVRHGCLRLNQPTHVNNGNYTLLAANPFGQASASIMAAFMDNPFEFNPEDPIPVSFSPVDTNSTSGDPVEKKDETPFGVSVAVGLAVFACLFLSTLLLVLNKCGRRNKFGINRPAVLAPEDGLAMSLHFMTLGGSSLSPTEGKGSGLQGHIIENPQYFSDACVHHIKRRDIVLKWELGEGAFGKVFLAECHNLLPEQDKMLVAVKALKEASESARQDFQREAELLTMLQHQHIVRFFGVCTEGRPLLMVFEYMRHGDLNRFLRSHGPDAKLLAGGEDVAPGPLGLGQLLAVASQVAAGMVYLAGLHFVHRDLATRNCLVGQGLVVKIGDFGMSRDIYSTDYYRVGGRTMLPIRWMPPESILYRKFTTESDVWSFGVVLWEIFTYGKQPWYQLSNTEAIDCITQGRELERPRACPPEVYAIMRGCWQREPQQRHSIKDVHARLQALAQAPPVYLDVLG
Sequence of Fms(h) (P07333 20-972): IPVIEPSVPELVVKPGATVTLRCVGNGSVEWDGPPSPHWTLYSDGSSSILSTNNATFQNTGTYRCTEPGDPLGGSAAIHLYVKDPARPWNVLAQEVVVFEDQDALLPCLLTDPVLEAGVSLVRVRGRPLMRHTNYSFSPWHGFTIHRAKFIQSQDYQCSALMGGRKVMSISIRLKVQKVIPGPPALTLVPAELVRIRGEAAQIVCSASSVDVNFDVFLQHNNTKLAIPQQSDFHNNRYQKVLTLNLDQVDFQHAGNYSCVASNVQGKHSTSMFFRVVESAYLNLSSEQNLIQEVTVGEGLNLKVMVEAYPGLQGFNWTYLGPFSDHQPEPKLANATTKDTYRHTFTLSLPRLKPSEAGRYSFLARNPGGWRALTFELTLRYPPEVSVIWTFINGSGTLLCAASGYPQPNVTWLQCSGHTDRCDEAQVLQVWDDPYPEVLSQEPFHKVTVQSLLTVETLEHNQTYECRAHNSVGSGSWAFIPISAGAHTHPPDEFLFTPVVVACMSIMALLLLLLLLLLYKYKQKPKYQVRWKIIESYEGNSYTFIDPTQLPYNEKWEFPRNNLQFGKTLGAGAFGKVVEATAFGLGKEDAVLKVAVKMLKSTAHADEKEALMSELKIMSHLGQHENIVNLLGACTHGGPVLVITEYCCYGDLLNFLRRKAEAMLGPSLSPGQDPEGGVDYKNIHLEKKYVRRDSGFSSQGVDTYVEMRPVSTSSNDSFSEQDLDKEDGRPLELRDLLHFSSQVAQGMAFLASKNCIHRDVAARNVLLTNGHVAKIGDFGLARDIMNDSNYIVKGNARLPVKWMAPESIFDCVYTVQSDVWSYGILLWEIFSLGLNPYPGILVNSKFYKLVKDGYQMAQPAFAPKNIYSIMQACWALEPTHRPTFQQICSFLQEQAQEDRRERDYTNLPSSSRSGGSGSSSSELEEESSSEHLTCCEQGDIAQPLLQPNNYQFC
Sequence of DAPK2(h) (Q9UIK4 whole entry): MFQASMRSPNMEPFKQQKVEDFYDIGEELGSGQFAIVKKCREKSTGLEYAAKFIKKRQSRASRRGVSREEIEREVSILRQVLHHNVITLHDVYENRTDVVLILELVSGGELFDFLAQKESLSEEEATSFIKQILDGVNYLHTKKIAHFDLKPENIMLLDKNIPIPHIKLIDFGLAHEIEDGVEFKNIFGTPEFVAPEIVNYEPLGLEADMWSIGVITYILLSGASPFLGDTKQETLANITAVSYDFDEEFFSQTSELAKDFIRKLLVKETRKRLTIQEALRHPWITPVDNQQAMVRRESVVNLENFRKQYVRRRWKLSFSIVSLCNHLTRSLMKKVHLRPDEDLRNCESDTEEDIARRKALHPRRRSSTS

CC(C)CCC(=O)[C@]1(O)C(O)=C(C(=O)C(C)C)C(=O)[C@H]1CCC(C)C [TH2, tetrahydroiso-cohumulone]
kinase inhibition (SIK(h); 1 μg/ml): 102% of control | kinase inhibition (SIK(h); 5 μg/ml): 99% of control | kinase inhibition (SIK(h); 25 μg/ml): 104% of control | kinase inhibition (SIK(h); 50 μg/ml): 89% of control | kinase inhibition (SIK(h); 100 μg/ml): 62% of control | kinase inhibition (TrkA(h); 1 μg/ml): 110% of control | kinase inhibition (TrkA(h); 5 μg/ml): 111% of control | kinase inhibition (TrkA(h); 25 μg/ml): 99% of control | kinase inhibition (TrkA(h); 50 μg/ml): 31% of control | kinase inhibition (TrkA(h); 100 μg/ml): 25% of control | kinase inhibition (DAPK2(h); 1 μg/ml): 61% of control | kinase inhibition (DAPK2(h); 5 μg/ml): 56% of control | kinase inhibition (DAPK2(h); 25 μg/ml): 55% of control | kinase inhibition (DAPK2(h); 50 μg/ml): 52% of control | kinase inhibition (DAPK2(h); 100 μg/ml): 49% of control | kinase inhibition (MuSK(h); 1 μg/ml): 104% of control | kinase inhibition (MuSK(h); 5 μg/ml): 101% of control | kinase inhibition (MuSK(h); 25 μg/ml): 99% of control | kinase inhibition (MuSK(h); 50 μg/ml): 98% of control | kinase inhibition (MuSK(h); 100 μg/ml): 97% of control | kinase inhibition (Fms(h); 1 μg/ml): 116% of control | kinase inhibition (Fms(h); 5 μg/ml): 103% of control | kinase inhibition (Fms(h); 25 μg/ml): 121% of control | kinase inhibition (Fms(h); 50 μg/ml): 117% of control | kinase inhibition (Fms(h); 100 μg/ml): 98% of control | kinase inhibition (TBK1(h); 1 μg/ml): 108% of control | kinase inhibition (TBK1(h); 5 μg/ml): 107% of control | kinase inhibition (TBK1(h); 25 μg/ml): 97% of control | kinase inhibition (TBK1(h); 50 μg/ml): 86% of control | kinase inhibition (TBK1(h); 100 μg/ml): 70% of control | kinase inhibition (Rsk2(h); 1 μg/ml): 102% of control | kinase inhibition (Rsk2(h); 5 μg/ml): 100% of control | kinase inhibition (Rsk2(h); 25 μg/ml): 81% of control | kinase inhibition (Rsk2(h); 50 μg/ml): 43% of control | kinase inhibition (Rsk2(h); 100 μg/ml): 32% of control | kinase inhibition (SGK2(h); 1 μg/ml): 133% of control | kinase inhibition (SGK2(h); 5 μg/ml): 116% of control | kinase inhibition (SGK2(h); 25 μg/ml): 112% of control | kinase inhibition (SGK2(h); 50 μg/ml): 121% of control | kinase inhibition (SGK2(h); 100 μg/ml): 69% of control
